Laboratory results published in patent US12582638B2, “Pharmaceutical composition for treating cancer, containing mTOR-signaling inhibitor as active ingredient” (KOREA ADVANCED INSTITUTE OF SCIENCE AND TECHNOLOGY, priority 2020, dated 2026).

Legend:
Assay in all cases: Cell viability, CellTiterGlo, 72 hours
Format in all cases: cell-based
SNU-1 = settings: Homo sapiens, SNU1, SNU-1 cells, Stomach
Procedure: (§1) In addition to the colorectal cells, 120 cancer cell lines treated with various concentrations of lomitapide were assayed for viability. To analyze cell viability, the cells were incubated with lomitapide at 37° C. for 72 hours in a 5% or 10% CO2 atmosphere and then equilibrated at room temperature for 1 hour, followed by addition of CellTiterGlo reagent (Promega). One hour later, luminescence was measured to calculate cell viability (%). The 120 cell lines were purchased from ATCC (American Type Culture Collection, Virginia, USA).

BxPC-3 = settings: Homo sapiens, BxPC-3 cells, Pancreas
Procedure: as §1

Hutu 80 = settings: Homo sapiens, HuTu80, Hutu 80 cells, Duodenum
Procedure: as §1

Hep3B2.1-7 = Hep3B2.1-7 cells, Liver
Procedure: as §1

T98G = settings: Homo sapiens, T98G cells, Brain
Procedure: as §1

A2058 = settings: Homo sapiens, A2058 cells, Skin
Procedure: as §1

Colo 205 = settings: Homo sapiens, Colo 205 cells, Colon
Procedure: as §1

U87MG = settings: Homo sapiens, U-87 MG, U87MG cells, Brain
Procedure: as §1

NCI-H1573 = settings: Homo sapiens, NCI-H1573 cells, Lung
Procedure: as §1

MDA MB 231 = settings: Homo sapiens, MDA MB 231 cells, Breast
Procedure: as §1

OVK18 = OVK18 cells, Ovary
Procedure: as §1

DV90 = settings: Homo sapiens, DV-90, DV90 cells, Lung
Procedure: as §1

NCI-H292 = settings: Homo sapiens, NCI-H292 cells, Lung
Procedure: as §1

NCI-H1563 = settings: Homo sapiens, NCI-H1563 cells, Lung
Procedure: as §1

RERF-LC-MS = RERF-LC-MS cells, Lung
Procedure: as §1

KMS-12-BM = settings: Homo sapiens, KMS-12-BM cells, Blood
Procedure: as §1

NCI-H441 = settings: Homo sapiens, NCI-H441 cells, Lung
Procedure: as §1

RKO = settings: Homo sapiens, RKO cells, Colon
Procedure: as §1

SK.BR-3 = settings: Homo sapiens, SK.BR-3 cells, Breast
Procedure: as §1

SK-N-MC = settings: Homo sapiens, SK-N-MC cells, Brain
Procedure: as §1

HT-1080 = settings: Homo sapiens, HT-1080 cells, Fibrosarcoma
Procedure: as §1

OCI-LY19 = settings: Homo sapiens, OCI-LY19 cells, Blood
Procedure: as §1

RPMI 8226 = settings: Homo sapiens, RPMI 8226 cells, Blood
Procedure: as §1

PC3 = settings: Homo sapiens, PC-3, PC3 cells, Prostate
Procedure: as §1

NCI-H82 = settings: Homo sapiens, NCI-H82 cells, Lung
Procedure: as §1

U251MG = settings: Homo sapiens, U-251, U251MG cells, Brain
Procedure: as §1

SW480 = settings: Homo sapiens, SW480 cells, Colon
Procedure: as §1

EPLC-272H = settings: Homo sapiens, EPLC-272H cells, Lung
Procedure: as §1

J82 = settings: Homo sapiens, J82 cells, Bladder
Procedure: as §1

EFO-27 = settings: Homo sapiens, EFO-27 cells, Ovary
Procedure: as §1

A172 = settings: Homo sapiens, A 172, A172 cells, Brain
Procedure: as §1

KG-1 = settings: Homo sapiens, KG-1 cells, Blood
Procedure: as §1

SK-OV3 = settings: Homo sapiens, SK-OV-3, SK-OV3 cells, Ovary
Procedure: as §1

OCI-AML3 = settings: Homo sapiens, OCI-AML-3, OCI-AML3 cells, Blood
Procedure: as §1

NCI-H1437 = settings: Homo sapiens, NCI-H1437 cells, Lung
Procedure: as §1

NCI-H1703 = settings: Homo sapiens, NCI-H1703 cells, Lung
Procedure: as §1

K562 = settings: Homo sapiens, K562 cells, Blood
Procedure: as §1

RERF-LC-Ad2 = RERF-LC-Ad2 cells, Lung
Procedure: as §1

Caki-1 = settings: Homo sapiens, Caki-1 cells, Kidney
Procedure: as §1

Compound: O=C(NC1CCN(CCCCC2(C(=O)NCC(F)(F)F)c3ccccc3-c3ccccc32)CC1)c1ccccc1-c1ccc(C(F)(F)F)cc1 [lomitapide, N-(2,2,2-trifluoroethyl)-9-[4-[4-[[[4′-(trifluoromethyl)[1,1′-biphenyl]2-yl]carbonyl]amino]-1-piperidinyl]butyl]-9H-fluoren-9-carboxamide]
- IC50 (SNU-1): 2.8 µM
- IC50 (BxPC-3): 5.7 µM
- IC50 (Hutu 80): 3 µM
- IC50 (Hep3B2.1-7): 2.7 µM
- IC50 (T98G): 3.8 µM
- IC50 (A2058): 1.4 µM
- IC50 (Colo 205): 3.4 µM
- IC50 (U87MG): 3.1 µM
- IC50 (NCI-H1573): 4.7 µM
- IC50 (MDA MB 231): 3.2 µM
- IC50 (OVK18): 3.3 µM
- IC50 (DV90): 5.2 µM
- IC50 (NCI-H292): 3 µM
- IC50 (NCI-H1563): 5.3 µM
- IC50 (RERF-LC-MS): 3.2 µM
- IC50 (KMS-12-BM): 3.5 µM
- IC50 (NCI-H441): 3.2 µM
- IC50 (RKO): 3.3 µM
- IC50 (SK.BR-3): 3.9 µM
- IC50 (SK-N-MC): 2.4 µM
- IC50 (HT-1080): 3.9 µM
- IC50 (OCI-LY19): 2.8 µM
- IC50 (RPMI 8226): 2.1 µM
- IC50 (PC3): 4.3 µM
- IC50 (NCI-H82): 3.2 µM
- IC50 (U251MG): 5.4 µM
- IC50 (SW480): 2.5 µM
- IC50 (EPLC-272H): 3.1 µM
- IC50 (J82): 3.6 µM
- IC50 (EFO-27): 4 µM
- IC50 (A172): 1.9 µM
- IC50 (KG-1): 5.7 µM
- IC50 (SK-OV3): 3.3 µM
- IC50 (OCI-AML3): 2.1 µM
- IC50 (NCI-H1437): 3.1 µM
- IC50 (NCI-H1703): 5.7 µM
- IC50 (K562): 2.1 µM
- IC50 (RERF-LC-Ad2): 2.6 µM
- IC50 (Caki-1): 3.6 µM
